US10336762B2 (priority 2017, dated 2019)
Read-outs that look alike come from different tables or passages of the source.

Assays:
IRAK4 enzyme = IRAK4 enzyme (Homo sapiens (Human), UniProt Q9NWZ3); experiment: biochemical; assay type: biochemical; settings: IRAK4 enzyme, 500 μM ATP
TNFα = experiment: cells; assay type: cell-based, human; settings: LPS-stimulated human monocytes, read-out: EC50 TNF
[1] = Homo sapiens, Monocyte, TNFα content
[2] = Homo sapiens, Monocyte, TNFα by TR-FRET

IRAK4 enzyme, sequence (Q9NWZ3 whole entry): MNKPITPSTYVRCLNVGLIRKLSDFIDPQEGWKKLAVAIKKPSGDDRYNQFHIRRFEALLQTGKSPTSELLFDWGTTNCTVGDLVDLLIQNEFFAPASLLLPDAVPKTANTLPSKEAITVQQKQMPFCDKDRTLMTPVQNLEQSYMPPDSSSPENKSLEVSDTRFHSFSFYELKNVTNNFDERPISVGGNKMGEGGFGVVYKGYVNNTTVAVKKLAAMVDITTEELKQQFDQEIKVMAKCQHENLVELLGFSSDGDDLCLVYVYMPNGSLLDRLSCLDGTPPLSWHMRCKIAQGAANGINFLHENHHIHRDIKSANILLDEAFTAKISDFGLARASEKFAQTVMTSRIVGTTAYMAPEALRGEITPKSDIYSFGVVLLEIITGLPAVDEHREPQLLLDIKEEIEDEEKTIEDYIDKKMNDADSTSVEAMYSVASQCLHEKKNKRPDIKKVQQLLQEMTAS

Row | SMILES | IC50 (IRAK4 enzyme; TR-FRET (HTRF)) [nM] | EC50 (TNFα; [1]) [nM] | IC50 (IRAK4 enzyme; TR-FRET) [nM] | EC50 (TNFα; [2]) [nM] | EC50 (TNFα; TNFα content) [nM]
1 | CNC(=O)c1cnc(-c2ccc3cc(C#N)cnn23)cc1N[C@H]1CC[C@H](C(=O)NC)C1 [Example 467, 6-(3-cyanopyrrolo[1,2-b]pyridazin-7-yl)-N-methyl-4-(((1S,3S)-3-(methylcarbamoyl)cyclo-pentyl)amino)nicotinamide] | 4 | 167 |  |  | 
2 | N#Cc1cnn2c(-c3cc(NC45CCC(O)(CC4)CC5)c(C(=O)N[C@@H]4CCNC4=O)cn3)ccc2c1 [Example 959, (R)-6-(3-cyanopyrrolo[1,2-b]pyridazin-7-yl)-4-((4-hydroxybicyclo[2.2.2]octan-1-yl)amino)-N-(2-oxo-pyrrolidin-3-yl)nicotinamide] |  |  | < 1 | 206 | 
3 | CC1(O)CCCC(Nc2cc(-c3ccc4cc(C#N)cnn34)ncc2C(=O)NC[C@@H](F)C(C)(C)O)C1 (single isomer, unassigned) [Example 529] | 1 |  |  |  | 62
4 | CN(C)S(=O)(=O)N[C@H]1CC[C@H](Nc2cc(-c3ccc4cc(C#N)cnn34)ncc2C(=O)NC[C@@H](F)C(C)(C)O)CC1 [Example 285, 6-(3-cyanopyrrolo[1,2-b]pyridazin-7-yl)-4-(((1r,4R)-4-((N,N-dimethylsulfamoyl)amino)cyclohexyl)amino)-N-((R)-2-fluoro-3-hydroxy-3-methylbutyl)nicotinamide] |  | 167 | 2 |  | 
5 | CN(C)C(=O)O[C@H]1C[C@H](Nc2cc(-c3ccc4cc(C#N)cnn34)ncc2C(=O)NC[C@@H](F)C(C)(C)O)C1 [Example 161, (1R,3r)-3-((2-(3-cyano-pyrrolo[1,2-b]pyridazin-7-yl)-5-(((R)-2-fluoro-3-hydroxy-3-methylbutyl)carbamoyl)pyridin-4-yl)amino)cyclobutyl dimethylcarbamate] |  | > 10000 | 1000 |  | 
6 | COC(=O)NC[C@H]1C[C@H](Nc2cc(-c3ccc4cc(C#N)cnn34)ncc2C(=O)NCC(=O)N2CC(F)(F)C2)C1 [Example 952, methyl (((1r,3r)-3-((2-(3-cyanopyrrolo[1,2-b]pyridazin-7-yl)-5-((2-(3,3-difluoroazetidin-1-yl)-2-oxoethyl)carbamoyl)pyridin-4-yl)amino)cyclo-butyl)methyl)carbamate] |  |  | < 1 | 62 | 
7 | CC(=O)NC12CC(Nc3cc(-c4ccc5cc(C#N)cnn45)ncc3C(=O)N[C@H]3CC[C@H](C(=O)N4CC(F)(F)C4)CC3)(C1)C2 [Example 478, 4-((3-acetamido-bicyclo[1.1.1]pentan-1-yl)amino)-6-(3-cyano-pyrrolo[1,2-b]pyridazin-7-yl)-N-((1r,4r)-4-(3,3-difluoroazetidine-1-carbonyl)cyclohexyl) nicotinamide] | 1 | 73 |  |  | 
8 | CC(C)(O)[C@H](F)CNC(=O)c1cnc(-c2ccc3cc(C#N)cnn23)cc1NC12CCC(C(F)F)(CC1)CC2 [Example 537, (R)-6-(3-cyanopyrrolo[1,2-b]pyridazin-7-yl)-4-((4-(difluoromethyl)bicyclo[2.2.2]octan-1-yl)amino)-N-(2-fluoro-3-hydroxy-3-methylbutyl)nicotinamide] | 1 | 18 |  |  | 
9 | CC(C)(O)[C@H](F)CNC(=O)c1cnc(-c2ccc3cc(C#N)cnn23)cc1Nc1ccc(-n2nccn2)nc1 [Example 778, (R)-4-((6-(2H-1,2,3-triazol-2-yl)pyridin-3-yl)amino)-6-(3-cyanopyrrolo[1,2-b]pyridazin-7-yl)-N-(2-fluoro-3-hydroxy-3-methyl-butyl)nicotinamide] | < 1 | 51 |  |  | 
10 | CC(C)(O)[C@H](F)CNC(=O)c1cnc(-c2ccc3cc(C#N)cnn23)cc1Nc1cnc(-c2cn[nH]c2)cn1 [Example 972, (R)-4-((5-(1H-pyrazol-4-yl)pyrazin-2-yl)amino)-6-(3-cyanopyrrolo[1,2-b]pyridazin-7-yl)-N-(2-fluoro-3-hydroxy-3-methylbutyl)nicotinamide] |  |  | < 1 | 12 | 
